In patent publication US20240316022A1 (TYRA BIOSCIENCES, INC., priority 2021, published 2024):

Key:
FGFR1 = target: T1, FGFR1 (Homo sapiens, UniProt P11362); experiment: Kinase binding assay (kinase-tagged T7 phage, qPCR), Kd; conditions: read-out: FGFR1 (Kd nM)
T1 construct: made in house; host or cells: E. coli derived from BL21, infected with T7 phage

FGFR2 = target: T2, FGFR2 (Homo sapiens, UniProt P21802); experiment: as above; conditions: read-out: FGFR2 (Kd nM)
T2 construct: made in house; host or cells: E. coli derived from BL21, infected with T7 phage

FGFR3 = target: T3, FGFR3 (Homo sapiens, UniProt P22607); experiment: as above; conditions: read-out: FGFR3 (Kd nM)
T3 construct: made in house; host or cells: E. coli derived from BL21, infected with T7 phage

FGFR4 = target: T4, FGFR4 (Homo sapiens, UniProt P22455); experiment: as above; conditions: read-out: FGFR4 (Kd nM)
T4 construct: made in house; host or cells: E. coli derived from BL21, infected with T7 phage

BCR-FGFR4 Ba/F3 = target: T5, BCR-FGFR4 Ba/F3 (Homo sapiens, UniProt P22455); experiment: Ba/F3 cell viability assay (CellTiter-Glo 2.0); assay type: cell-based; conditions: Ba/F3 BCR-FGFR4 cells, 48 hours
T5 construct: host or cells: Ba/F3; the other entry of the earlier key: BCR (P11274, Breakpoint cluster region protein)
From the text: (§1) Experimental Purpose: Recombinant kinase fusions are transduced into parental Ba/F3, which becomes dependent upon this constitutive kinase activity for IL3-independent survival. Inhibition of kinase activity leads to cell death, which is monitored using CellTiter-Glo® 2.0 (Promega) which measures intracellular ATP concentration that in turn serves as a marker for viability. BCR-FGFR4 Ba/F3, BCR-FGFR1 Ba/F3 and FGFR3-BAIAP2L1 Ba/F3 were obtained from Advanced Cellular Dynamics (Seattle, WA)
(§2) Cell Viability Assay Procedure: Cell Titer-Glo® 2.0 Luminescent cell viability assay reagent was purchased from Promega (Madison, WI). BCR-FGFR4 Ba/F3, BCR-FGFR1 Ba/F3 and FGFR3-BAIAP2L1 Ba/F3 cells were cultured in RPMI1640 media supplemented with 10% fetal bovine serum. Cultures were maintained at 37° C. in a humidified atmosphere of 5% CO2 and 95% air.
(§3) Cells were plated in 96-well clear bottom/white plates (Corning #3903) at 10,000 cells/well in 100 μl of media, incubated overnight. The next day, test compound DMSO stock solutions were made at 10 mM and 2 μM final concentration. Compounds were then added to cells in a 9-dose, 10-fold dilution series starting at 30 μM with an HP 300e Digital Dispenser (each dose was applied in triplicate). DMSO was backfilled to each well up to 301 nL total volume of test compound+DMSO, and a total of 301 nL DMSO was added to a control/no test compound well in triplicate. The cells in cell culture plates were incubated with the compounds at 37° C. and 5% CO2 for 48 hours. Then 50 μl of Cell Titer Glo 2.0 reagent was added to each well of the cell culture plates. The contents were covered from light and mixed on an orbital shaker at room temperature for 10 min. Luminescence was recorded by a Synergy H1 Microplate Reader (Biotek, Winooski, VT). Cells were assessed as a percentage of DMSO only treated control cells. Curves were plotted and IC50 values were calculated using the GraphPad Prism 8 program based on a sigmoidal dose-response equation (4 parameter).

BCR-FGFR1 Ba/F3 = target: T6, BCR-FGFR1 Ba/F3 (Homo sapiens, UniProt P11362); experiment: Ba/F3 cell viability assay (CellTiter-Glo 2.0); assay type: cell-based; conditions: Ba/F3 BCR-FGFR1 cells, 48 hours
T6 construct: host or cells: Ba/F3; the other entry of the earlier key: BCR (P11274, Breakpoint cluster region protein)
From the text: as §1, §2, §3

FGFR3-BAIAP2L1 Ba/F3 = target: T7, FGFR3-BAIAP2L1 Ba/F3 (Homo sapiens, UniProt P22607); experiment: Ba/F3 cell viability assay (CellTiter-Glo 2.0); assay type: cell-based; conditions: Ba/F3 FGFR3-BAIAP2L1 cells, 48 hours
T7 construct: host or cells: Ba/F3; the other entry of the earlier key: BAIAP2L1 (Q9UHR4, BAR/IMD domain-containing adapter protein 2-like 1)
From the text: as §1, §2, §3

T4 sequence (P22455 22-802): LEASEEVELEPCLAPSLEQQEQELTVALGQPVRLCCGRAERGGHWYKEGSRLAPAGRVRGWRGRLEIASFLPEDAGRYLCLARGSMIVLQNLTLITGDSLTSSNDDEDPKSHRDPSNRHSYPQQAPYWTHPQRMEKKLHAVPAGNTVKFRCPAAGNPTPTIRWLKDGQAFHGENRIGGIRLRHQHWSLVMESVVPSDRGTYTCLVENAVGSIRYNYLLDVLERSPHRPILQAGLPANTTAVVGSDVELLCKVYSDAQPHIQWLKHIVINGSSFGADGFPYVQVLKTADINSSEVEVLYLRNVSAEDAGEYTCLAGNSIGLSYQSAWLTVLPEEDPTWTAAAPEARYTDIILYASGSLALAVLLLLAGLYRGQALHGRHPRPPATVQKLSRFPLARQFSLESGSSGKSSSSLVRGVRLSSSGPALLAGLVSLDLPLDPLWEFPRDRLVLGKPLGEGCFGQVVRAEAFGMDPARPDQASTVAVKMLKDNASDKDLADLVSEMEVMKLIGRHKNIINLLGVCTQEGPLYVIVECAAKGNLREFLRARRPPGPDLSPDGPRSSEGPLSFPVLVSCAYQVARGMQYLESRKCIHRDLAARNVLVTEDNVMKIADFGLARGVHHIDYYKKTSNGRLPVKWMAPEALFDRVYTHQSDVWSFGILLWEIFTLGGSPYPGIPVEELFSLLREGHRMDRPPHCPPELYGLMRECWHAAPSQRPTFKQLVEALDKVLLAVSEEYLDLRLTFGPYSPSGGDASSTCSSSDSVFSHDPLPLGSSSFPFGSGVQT
T6 sequence (P11362 478-767 limits assumed): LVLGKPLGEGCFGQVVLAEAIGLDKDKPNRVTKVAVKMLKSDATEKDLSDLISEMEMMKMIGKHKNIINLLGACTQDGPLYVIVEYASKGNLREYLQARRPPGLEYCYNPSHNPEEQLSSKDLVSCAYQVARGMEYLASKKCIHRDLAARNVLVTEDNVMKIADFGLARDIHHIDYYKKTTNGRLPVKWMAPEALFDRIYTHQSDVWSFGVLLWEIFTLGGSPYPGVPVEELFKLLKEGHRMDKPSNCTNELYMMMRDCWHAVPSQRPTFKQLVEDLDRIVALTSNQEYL
T3 sequence (P22607 23-806): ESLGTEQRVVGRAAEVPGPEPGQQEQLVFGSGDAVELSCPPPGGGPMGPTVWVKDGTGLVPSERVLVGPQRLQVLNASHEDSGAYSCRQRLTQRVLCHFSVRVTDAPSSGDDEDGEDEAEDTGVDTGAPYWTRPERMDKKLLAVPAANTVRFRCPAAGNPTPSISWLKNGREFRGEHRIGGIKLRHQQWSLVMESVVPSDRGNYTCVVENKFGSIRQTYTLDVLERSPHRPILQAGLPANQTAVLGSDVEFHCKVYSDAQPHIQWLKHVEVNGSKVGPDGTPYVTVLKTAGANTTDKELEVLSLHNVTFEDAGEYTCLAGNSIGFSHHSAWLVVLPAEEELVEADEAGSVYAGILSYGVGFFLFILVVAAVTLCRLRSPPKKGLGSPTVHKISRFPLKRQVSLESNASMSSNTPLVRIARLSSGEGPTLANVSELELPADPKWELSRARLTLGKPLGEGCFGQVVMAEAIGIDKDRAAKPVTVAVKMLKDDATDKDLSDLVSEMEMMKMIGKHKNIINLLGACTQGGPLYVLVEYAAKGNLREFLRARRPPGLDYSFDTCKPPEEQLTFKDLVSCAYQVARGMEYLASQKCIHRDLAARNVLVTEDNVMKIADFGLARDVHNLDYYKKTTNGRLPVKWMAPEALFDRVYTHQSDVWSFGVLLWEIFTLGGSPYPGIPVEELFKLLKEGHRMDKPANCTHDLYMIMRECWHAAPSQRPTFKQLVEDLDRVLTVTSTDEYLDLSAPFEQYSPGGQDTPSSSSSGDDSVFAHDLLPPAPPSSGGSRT
T7 sequence (P22607 397-758 limits assumed): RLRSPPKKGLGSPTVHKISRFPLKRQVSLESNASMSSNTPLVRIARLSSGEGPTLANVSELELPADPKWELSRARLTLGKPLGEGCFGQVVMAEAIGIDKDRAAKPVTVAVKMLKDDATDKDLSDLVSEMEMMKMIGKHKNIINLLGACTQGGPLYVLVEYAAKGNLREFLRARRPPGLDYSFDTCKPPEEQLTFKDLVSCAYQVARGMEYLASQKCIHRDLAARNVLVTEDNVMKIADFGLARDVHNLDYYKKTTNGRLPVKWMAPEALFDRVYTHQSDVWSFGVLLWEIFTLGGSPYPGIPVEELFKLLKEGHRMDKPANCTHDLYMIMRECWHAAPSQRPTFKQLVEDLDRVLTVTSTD
T2 sequence (P21802 22-821): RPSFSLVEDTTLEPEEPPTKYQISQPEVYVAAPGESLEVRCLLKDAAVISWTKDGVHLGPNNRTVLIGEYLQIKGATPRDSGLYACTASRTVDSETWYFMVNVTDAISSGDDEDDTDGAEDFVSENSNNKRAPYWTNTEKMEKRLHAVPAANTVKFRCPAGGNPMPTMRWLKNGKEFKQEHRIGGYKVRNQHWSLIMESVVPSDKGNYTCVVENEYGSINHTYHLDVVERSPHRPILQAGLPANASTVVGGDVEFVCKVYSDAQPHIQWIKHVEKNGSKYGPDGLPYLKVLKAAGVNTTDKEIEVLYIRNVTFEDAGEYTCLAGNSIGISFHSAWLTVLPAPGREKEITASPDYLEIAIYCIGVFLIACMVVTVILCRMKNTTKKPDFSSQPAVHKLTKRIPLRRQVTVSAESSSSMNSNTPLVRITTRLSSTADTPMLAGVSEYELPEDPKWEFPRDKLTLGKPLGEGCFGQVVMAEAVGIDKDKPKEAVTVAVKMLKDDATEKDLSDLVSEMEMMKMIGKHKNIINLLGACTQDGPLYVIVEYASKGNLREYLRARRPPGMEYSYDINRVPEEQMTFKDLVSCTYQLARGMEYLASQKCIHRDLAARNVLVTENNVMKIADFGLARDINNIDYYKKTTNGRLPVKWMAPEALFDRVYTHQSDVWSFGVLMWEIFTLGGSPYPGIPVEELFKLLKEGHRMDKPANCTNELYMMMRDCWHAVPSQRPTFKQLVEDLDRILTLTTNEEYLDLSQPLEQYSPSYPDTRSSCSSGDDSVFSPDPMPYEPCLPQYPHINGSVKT
T1 sequence (P11362 22-822): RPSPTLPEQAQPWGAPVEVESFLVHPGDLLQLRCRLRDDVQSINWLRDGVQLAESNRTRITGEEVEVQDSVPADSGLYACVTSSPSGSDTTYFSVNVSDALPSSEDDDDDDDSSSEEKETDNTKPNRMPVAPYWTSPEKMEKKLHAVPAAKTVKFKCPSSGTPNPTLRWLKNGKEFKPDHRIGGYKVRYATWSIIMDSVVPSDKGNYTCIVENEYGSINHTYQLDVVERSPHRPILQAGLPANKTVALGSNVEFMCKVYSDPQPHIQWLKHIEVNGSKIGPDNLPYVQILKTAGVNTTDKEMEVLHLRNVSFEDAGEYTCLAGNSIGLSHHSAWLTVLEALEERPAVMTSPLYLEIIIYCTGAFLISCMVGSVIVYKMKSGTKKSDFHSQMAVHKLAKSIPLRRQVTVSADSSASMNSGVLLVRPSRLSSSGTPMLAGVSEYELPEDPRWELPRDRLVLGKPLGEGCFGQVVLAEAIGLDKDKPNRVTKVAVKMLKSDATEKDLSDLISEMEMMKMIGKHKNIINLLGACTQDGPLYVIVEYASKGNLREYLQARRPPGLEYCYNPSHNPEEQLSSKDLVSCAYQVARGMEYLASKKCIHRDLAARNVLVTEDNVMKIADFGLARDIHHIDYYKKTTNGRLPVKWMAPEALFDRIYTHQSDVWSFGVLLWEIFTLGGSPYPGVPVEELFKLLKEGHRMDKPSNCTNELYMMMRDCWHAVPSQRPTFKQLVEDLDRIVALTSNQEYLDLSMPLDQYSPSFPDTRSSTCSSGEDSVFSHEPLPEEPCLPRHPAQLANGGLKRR
T5 sequence (P22455 467-755 limits assumed): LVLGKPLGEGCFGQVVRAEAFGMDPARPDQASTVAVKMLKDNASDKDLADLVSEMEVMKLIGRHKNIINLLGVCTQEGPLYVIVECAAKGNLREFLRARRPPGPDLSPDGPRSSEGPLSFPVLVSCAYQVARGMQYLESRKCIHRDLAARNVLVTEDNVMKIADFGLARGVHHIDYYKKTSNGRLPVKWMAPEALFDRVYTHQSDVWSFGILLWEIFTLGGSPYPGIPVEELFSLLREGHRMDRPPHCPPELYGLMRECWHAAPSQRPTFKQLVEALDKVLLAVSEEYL

C[C@@H](Oc1ccc2[nH]nc(-c3cnc4c(c3)NCCO4)c2c1)c1c(Cl)cncc1Cl [Example 17, 7-[5-[(1R)-1-(3,5-dichloro-4-pyridyl)ethoxy]-1H-indazol-3-yl]-2,3-dihydro-1H-pyrido[2,3-b][1,4]oxazine]
Kd (FGFR1): 0.1 to 100 nM
Kd (FGFR2): 0.1 to 100 nM
Kd (FGFR3): 0.1 to 100 nM
Kd (FGFR4): 0.1 to 100 nM
IC50 (BCR-FGFR4 Ba/F3): 250 to 1000 nM

C[C@@H](Oc1ccc2[nH]nc(-c3cnc4c(c3)N(C(=O)c3ccccn3)CCO4)c2c1)c1c(Cl)cncc1Cl [Example 20, [7-[5-[(1R)-1-(3,5-dichloro-4-pyridyl)ethoxy]-1H-indazol-3-yl]-2,3-dihydropyrido[2,3-b][1,4]oxazin-1-yl]-(2-pyridyl)methanone]
Kd (FGFR1): 100 to 250 nM
Kd (FGFR2): 100 to 250 nM
Kd (FGFR3): 0.1 to 100 nM
Kd (FGFR4): 0.1 to 100 nM
IC50 (BCR-FGFR4 Ba/F3): 250 to 1000 nM

C=CC(=O)N1CCOc2ncc(-c3n[nH]c4ccc(O[C@H](C)c5c(Cl)cncc5Cl)cc34)cc21 [Example 25, 1-[7-[5-[(1R)-1-(3,5-dichloro-4-pyridyl)ethoxy]-1H-indazol-3-yl]-2,3-dihydro-pyrido[2,3-b][1,4]oxazin-1-yl]prop-2-en-1-one]
Kd (FGFR1): > 1000 nM
Kd (FGFR2): > 1000 nM
Kd (FGFR3): > 1000 nM
Kd (FGFR4): 0.1 to 100 nM
IC50 (BCR-FGFR1 Ba/F3): > 1000 nM
IC50 (BCR-FGFR4 Ba/F3): 0.1 to 100 nM
IC50 (FGFR3-BAIAP2L1 Ba/F3): 250 to 1000 nM

C[C@@H](Oc1ccc2[nH]nc(-c3cnc4c(c3)N(C(=O)CCN(C)C)CCO4)c2c1)c1c(Cl)cncc1Cl [Example 26, 1-[7-[5-[(1R)-1-(3,5-dichloro-4-pyridyl)ethoxy]-1H-indazol-3-yl]-2,3-dihydropyrido[2,3-b][1,4]oxazin-1-yl]-3-(dimethyl-amino)propan-1-one]
Kd (FGFR1): > 1000 nM
Kd (FGFR2): > 1000 nM
Kd (FGFR3): 250 to 1000 nM
Kd (FGFR4): 0.1 to 100 nM
IC50 (BCR-FGFR4 Ba/F3): 0.1 to 100 nM

C[C@@H](Oc1ccc2[nH]nc(-c3cnc(N)c(OC(F)F)c3)c2c1)c1c(Cl)cncc1Cl [Example 28, 5-[5-[(1R)-1-(3,5-dichloro-4-pyridyl)ethoxy]-1H-indazol-3-yl]-3-(difluoromethoxy)pyridin-2-amine]
Kd (FGFR1): 250 to 1000 nM
Kd (FGFR2): > 1000 nM
Kd (FGFR3): 250 to 1000 nM
Kd (FGFR4): 0.1 to 100 nM
IC50 (BCR-FGFR1 Ba/F3): > 1000 nM
IC50 (BCR-FGFR4 Ba/F3): 250 to 1000 nM
IC50 (FGFR3-BAIAP2L1 Ba/F3): 250 to 1000 nM

C[C@@H](Oc1ccc2[nH]nc(-c3cnc(N)c(C#N)c3)c2c1)c1c(Cl)cncc1Cl [Example 30, 2-amino-5-[5-[(1R)-1-(3,5-dichloro-4-pyridyl)ethoxy]-1H-indazol-3-yl]pyridine-3-carbonitrile]
Kd (FGFR1): 0.1 to 100 nM
Kd (FGFR2): > 1000 nM
Kd (FGFR3): 0.1 to 100 nM
Kd (FGFR4): 0.1 to 100 nM
IC50 (BCR-FGFR4 Ba/F3): 250 to 1000 nM

COc1cc(-c2n[nH]c3ccc(O[C@H](C)c4c(Cl)cncc4Cl)cc23)cnc1N [Example 34, 5-[5-[(1R)-1-(3,5-dichloro-4-pyridyl)ethoxy]-1H-indazol-3-yl]-3-methoxy-pyridin-2-amine]
Kd (FGFR1): 250 to 1000 nM
Kd (FGFR2): 250 to 1000 nM
Kd (FGFR3): 0.1 to 100 nM
Kd (FGFR4): 0.1 to 100 nM
IC50 (BCR-FGFR4 Ba/F3): 250 to 1000 nM

Cc1nccc(C(=O)N2CCOc3ncc(-c4n[nH]c5ccc(O[C@H](C)c6c(Cl)cncc6Cl)cc45)cc32)n1 [Example 40, [7-[5-[(1R)-1-(3,5-dichloro-4-pyridyl)ethoxy]-1H-indazol-3-yl]-2,3-dihydro-pyrido[2,3-b][1,4]oxazin-1-yl]-(2-methyl-pyrimidin-4-yl)methanone]
Kd (FGFR1): 250 to 1000 nM
Kd (FGFR2): 250 to 1000 nM
Kd (FGFR3): 0.1 to 100 nM
Kd (FGFR4): 0.1 to 100 nM
IC50 (BCR-FGFR4 Ba/F3): 250 to 1000 nM

Cc1ccc(C(=O)N2CCOc3ncc(-c4n[nH]c5ccc(O[C@H](C)c6c(Cl)cncc6Cl)cc45)cc32)cn1 [Example 41]
Kd (FGFR1): 0.1 to 100 nM
Kd (FGFR2): 100 to 250 nM
Kd (FGFR3): 0.1 to 100 nM
Kd (FGFR4): 0.1 to 100 nM
IC50 (BCR-FGFR4 Ba/F3): 250 to 1000 nM

Cc1ncccc1C(=O)N1CCOc2ncc(-c3n[nH]c4ccc(O[C@H](C)c5c(Cl)cncc5Cl)cc34)cc21 [Example 42, [7-[5-[(1R)-1-(3,5-dichloro-4-pyridyl)ethoxy]-1H-indazol-3-yl]-2,3-dihydro-pyrido[2,3-b][1,4]oxazin-1-yl]-(2-methyl-3-pyridyl)methanone]
Kd (FGFR1): > 1000 nM
Kd (FGFR2): > 1000 nM
Kd (FGFR3): 100 to 250 nM
Kd (FGFR4): 0.1 to 100 nM
IC50 (BCR-FGFR4 Ba/F3): > 1000 nM

COc1cc(NC(=O)c2ccccn2)cc(-c2n[nH]c3ccc(O[C@H](C)c4c(Cl)cncc4Cl)cc23)c1 [Example 45, N-[3-[5-[(1R)-1-(3,5-dichloro-4-pyridyl)ethoxy]-1H-indazol-3-yl]-5-methoxy-phenyl]pyridine-2-carboxamide]
Kd (FGFR1): 250 to 1000 nM
Kd (FGFR2): > 1000 nM
Kd (FGFR3): 0.1 to 100 nM
Kd (FGFR4): 0.1 to 100 nM
IC50 (BCR-FGFR4 Ba/F3): 250 to 1000 nM

C[C@@H](Oc1ccc2[nH]nc(-c3cnc4c(c3)N(CCO)CCO4)c2c1)c1c(Cl)cncc1Cl [Example 49, 2-[7-[5-[(1R)-1-(3,5-dichloro-4-pyridyl)ethoxy]-1H-indazol-3-yl]-2,3-dihydro-pyrido[2,3-b][1,4]oxazin-1-yl]ethanol]
Kd (FGFR1): > 1000 nM
Kd (FGFR2): > 1000 nM
Kd (FGFR3): 250 to 1000 nM
Kd (FGFR4): 100 to 250 nM
IC50 (BCR-FGFR4 Ba/F3): 250 to 1000 nM

COc1cc(C#N)cc(-c2n[nH]c3ccc(O[C@H](C)c4c(C)cnnc4C)cc23)c1 [Example 53, 3-[5-[(1R)-1-(3,5-dimethylpyridazin-4-yl)ethoxy]-1H-indazol-3-yl]-5-methoxy-benzonitrile]
Kd (FGFR1): 250 to 1000 nM
Kd (FGFR2): 0.1 to 100 nM
Kd (FGFR3): 0.1 to 100 nM
Kd (FGFR4): 0.1 to 100 nM
IC50 (BCR-FGFR4 Ba/F3): 250 to 1000 nM

Cc1cnnc(C)c1[C@@H](C)Oc1ccc2[nH]nc(-c3cc(C#N)cc(OCCO)c3)c2c1 [Example 72, 3-[5-[(1R)-1-(3,5-dimethylpyridazin-4-yl)ethoxy]-1H-indazol-3-yl]-5-(2-hydroxyethoxy)benzonitrile]
Kd (FGFR1): 0.1 to 100 nM
Kd (FGFR2): 0.1 to 100 nM
Kd (FGFR3): 0.1 to 100 nM
Kd (FGFR4): 0.1 to 100 nM
IC50 (BCR-FGFR1 Ba/F3): 250 to 1000 nM
IC50 (BCR-FGFR4 Ba/F3): 100 to 250 nM
IC50 (FGFR3-BAIAP2L1 Ba/F3): 0.1 to 100 nM

Cc1cc(C#N)cc(-c2n[nH]c3ccc(O[C@H](C)c4c(C)cnnc4C)cc23)c1 [Example 79, 3-[5-[(1R)-1-(3,5-dimethylpyridazin-4-yl)ethoxy]-1H-indazol-3-yl]-5-methyl-benzonitrile]
Kd (FGFR1): 0.1 to 100 nM
Kd (FGFR2): 0.1 to 100 nM
Kd (FGFR3): 0.1 to 100 nM
Kd (FGFR4): 0.1 to 100 nM
IC50 (BCR-FGFR1 Ba/F3): 250 to 1000 nM
IC50 (BCR-FGFR4 Ba/F3): 250 to 1000 nM
IC50 (FGFR3-BAIAP2L1 Ba/F3): 0.1 to 100 nM

Cc1ncc(Cl)c([C@@H](C)Oc2ccc3[nH]nc(-c4ccc5c(c4)COC4(CCN(CC(F)F)CC4)O5)c3c2)c1Cl [Example 166, (R)-6-(5-(1-(3,5-Dichloro-2-methylpyridin-4-yl)ethoxy)-1H-indazol-3-yl)-1′-(2,2-difluoroethyl)-4H-spiro[benzo[d][1,3]dioxine-2,4′-piperidine]]
Kd (FGFR1): 100 to 250 nM
Kd (FGFR2): 100 to 250 nM
Kd (FGFR3): 0.1 to 100 nM
Kd (FGFR4): 0.1 to 100 nM
IC50 (BCR-FGFR1 Ba/F3): > 1000 nM
IC50 (FGFR3-BAIAP2L1 Ba/F3): 100 to 250 nM

C[C@@H](Oc1ccc2[nH]nc(-c3ccc4c(c3)COC3(CCN(CC(F)(F)F)CC3)O4)c2c1)c1c(Cl)cncc1Cl [Example 169, 6-[5-[(1R)-1-(3,5-dichloro-4-pyridyl)ethoxy]-1H-indazol-3-yl]-1′-(2,2,2-trifluoroethyl)spiro[4H-1,3-benzodioxine-2,4′-piperidine]]
Kd (FGFR1): 100 to 250 nM
Kd (FGFR2): 100 to 250 nM
Kd (FGFR3): 0.1 to 100 nM
Kd (FGFR4): 0.1 to 100 nM
IC50 (BCR-FGFR1 Ba/F3): > 1000 nM
IC50 (FGFR3-BAIAP2L1 Ba/F3): 0.1 to 100 nM
